Measurements as given in US20120322654A1, “SYNERGISTIC FUNGICIDAL MIXTURES” (BASF SE, priority 2010, published 2012).

System: Septoria tritici
Assay: Microtiter plate test, activity against Septoria tritici (leaf blotch on wheat)
Assay type: cell-based
Settings: MTP, absorption at 405 nm 7 days after inoculation, 18° C
Protocol: The active compounds were formulated separately as a stock solution having a concentration of 10000 ppm in dimethyl sulfoxide.
Activity Against Septoria tritici, the Causal Agent of Leaf Blotch on Wheat
The stock solutions were mixed according to the ratio, pipetted onto a micro titer plate (MTP) and diluted with water to the stated concentrations. A spore suspension of Septoria tritici in an aqueous biomalt solution was then added. The plates were placed in a water vapor-saturated chamber at a temperature of 18° C. Using an absorption photometer, the MTPs were measured at 405 nm 7 days after the inoculation.
The measured parameters were compared to the growth of the active compound-free control variant (100%) and the fungus-free and active compound-free blank value to determine the relative growth in % of the pathogens in the respective active compounds.
The expected efficacies of active compound combinations were determined using Colby's formula (Colby, S. R., Calculating synergistic and antagonistic responses of herbicide combinations, Weeds, 15, pp. 20-22, 1967) and compared with the observed efficacies. […]

| SMILES | Observed efficacy (0.25 ppm) [%] | Observed efficacy (1 ppm) [%] |
| --- | --- | --- |
| O=C(Nc1ccccc1-c1ccc(Cl)cc1)c1cccnc1Cl [Boscalid, boscalid] | 34 |  |
| CC1(C)C(C=C(Cl)Cl)C1C(=O)OC(C#N)c1cccc(Oc2ccccc2)c1 (stereo not drawn) [alpha-Cypermethrin, alpha-cypermethrin] |  | 2 |
